Laboratory results: the supplement of paper PMC10307832

How the values were obtained:
Assay in all cases: relative viability (nuclei count vs DMSO), 5 days (fraction); higher = more cells survive
UMC-11 = test system: UMC-11
Outline: (§1)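 After 5 days of treatment, lung cancer cells in 1536-well plates were fixed and stained in a single step (final 0.05% Triton X-100, 1% formaldehyde, 1 ug/ml Hoechst) and their nuclei counted on 4× images. Treatment had been applied by pin tool the day after seeding as one drug alone or as a fixed anchor-drug dose with five library-drug doses (not always all listed) in √10 steps. Relative viability is the nuclei count of treated wells divided by that of vehicle wells, and values are medians of duplicate plates.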

HCC-366 = test system: HCC-366
Outline: as §1

NCI-H2228 = test system: NCI-H2228
Outline: as §1

NCI-H1944 = test system: NCI-H1944
Outline: as §1

NCI-H2126 = test system: NCI-H2126
Outline: as §1

NCI-H2009 = test system: NCI-H2009
Outline: as §1

ChaGo-K-1 = test system: ChaGo-K-1
Outline: as §1

HCC-78 = test system: HCC-78
Outline: as §1

A-427 = test system: A-427
Outline: as §1

NCI-H2405 = test system: NCI-H2405
Outline: as §1

ABC-1 = test system: ABC-1
Outline: as §1

NCI-H2023 = test system: NCI-H2023
Outline: as §1

NCI-H1993 = test system: NCI-H1993
Outline: as §1

NCI-H838 = test system: NCI-H838
Outline: as §1

NCI-H1734 = test system: NCI-H1734
Outline: as §1

EMC-BAC-2 = test system: EMC-BAC-2
Outline: as §1

NCI-H23 = test system: NCI-H23
Outline: as §1

SK-LU-1 = test system: SK-LU-1
Outline: as §1

HARA = test system: HARA
Outline: as §1

COR-L23 = test system: COR-L23
Outline: as §1

HCC-15 = test system: HCC-15
Outline: as §1

NCI-H1793 = test system: NCI-H1793
Outline: as §1

LC-2-ad = test system: LC-2-ad
Outline: as §1

Work on `O=C(O)c1ccc(-c2c[nH]c3ncc(-c4ccccc4)cc23)cc1C1CCCC1` + O=C(CCCCCCC(=O)Nc1ccccc1)NO [Vorinostat] (partner 1 µM) yielded a relative viability (UMC-11; first compound 0.04 µM) of 0.419, a relative viability (UMC-11; first compound 0.1265 µM) of 0.321 and a relative viability (UMC-11; first compound 0.4 µM) of 0.347. For the same molecule, the relative viability (UMC-11; first compound 1.265 µM) was 0.219, the relative viability (HCC-366; first compound 0.04 µM) was 0.368 and the relative viability (HCC-366; first compound 0.1265 µM) was 0.531. For the same molecule, the relative viability (HCC-366; first compound 0.4 µM) was 0.394, the relative viability (HCC-366; first compound 1.265 µM) was 0.403 and the relative viability (NCI-H2228; first compound 0.04 µM) was 0.831. The relative viability (NCI-H2228; first compound 0.1265 µM) was 0.652, the relative viability (NCI-H2228; first compound 0.4 µM) was 0.745 and the relative viability (NCI-H2228; first compound 1.265 µM) was 0.291. It also gave a relative viability (NCI-H1944; first compound 0.04 µM) of 0.53, a relative viability (NCI-H1944; first compound 0.1265 µM) of 0.573 and a relative viability (NCI-H1944; first compound 0.4 µM) of 0.582. It also gave a relative viability (NCI-H1944; first compound 1.265 µM) of 0.465, a relative viability (NCI-H2126; first compound 0.04 µM) of 0.823 and a relative viability (NCI-H2126; first compound 0.1265 µM) of 0.755. The relative viability (NCI-H2126; first compound 0.4 µM) was 0.786, the relative viability (NCI-H2126; first compound 1.265 µM) was 0.616 and the relative viability (NCI-H2009; first compound 0.04 µM) was 0.719. The relative viability (NCI-H2009; first compound 0.1265 µM) was 0.733, the relative viability (NCI-H2009; first compound 0.4 µM) was 0.744 and the relative viability (NCI-H2009; first compound 1.265 µM) was 0.635. For the same molecule, the relative viability (ChaGo-K-1; first compound 0.04 µM) was 0.739, the relative viability (ChaGo-K-1; first compound 0.1265 µM) was 0.786 and the relative viability (ChaGo-K-1; first compound 0.4 µM) was 0.772. For the same molecule, the relative viability (ChaGo-K-1; first compound 1.265 µM) was 0.686, the relative viability (HCC-78; first compound 0.1265 µM) was 0.451 and the relative viability (HCC-78; first compound 0.4 µM) was 0.441. It also gave a relative viability (HCC-78; first compound 1.265 µM) of 0.448, a relative viability (A-427; first compound 0.04 µM) of 0.822 and a relative viability (A-427; first compound 0.1265 µM) of 0.84. It also gave a relative viability (A-427; first compound 0.4 µM) of 0.793, a relative viability (A-427; first compound 1.265 µM) of 0.742 and a relative viability (NCI-H2405; first compound 0.04 µM) of 1.02. The relative viability (NCI-H2405; first compound 0.1265 µM) was 1.12, the relative viability (NCI-H2405; first compound 0.4 µM) was 0.944 and the relative viability (NCI-H2405; first compound 1.265 µM) was 0.668. For the same molecule, the relative viability (ABC-1; first compound 0.04 µM) was 1.12, the relative viability (ABC-1; first compound 0.1265 µM) was 1.36 and the relative viability (ABC-1; first compound 0.4 µM) was 1.31. For the same molecule, the relative viability (ABC-1; first compound 1.265 µM) was 0.985, the relative viability (NCI-H2023; first compound 0.04 µM) was 0.825 and the relative viability (NCI-H2023; first compound 0.1265 µM) was 0.967. It also gave a relative viability (NCI-H2023; first compound 0.4 µM) of 0.523, a relative viability (NCI-H2023; first compound 1.265 µM) of 0.507 and a relative viability (NCI-H1993; first compound 0.04 µM) of 0.908. The relative viability (NCI-H1993; first compound 0.1265 µM) was 1.07, the relative viability (NCI-H1993; first compound 0.4 µM) was 0.725 and the relative viability (NCI-H1993; first compound 1.265 µM) was 0.311. The relative viability (NCI-H838; first compound 0.04 µM) was 0.68, the relative viability (NCI-H838; first compound 0.1265 µM) was 0.773 and the relative viability (NCI-H838; first compound 0.4 µM) was 0.771. It also gave a relative viability (NCI-H838; first compound 1.265 µM) of 0.544, a relative viability (NCI-H1734; first compound 0.04 µM) of 0.866 and a relative viability (NCI-H1734; first compound 0.1265 µM) of 0.858. The relative viability (NCI-H1734; first compound 0.4 µM) was 0.876, the relative viability (NCI-H1734; first compound 1.265 µM) was 0.648 and the relative viability (EMC-BAC-2; first compound 0.04 µM) was 0.421. It also gave a relative viability (EMC-BAC-2; first compound 0.1265 µM) of 0.575, a relative viability (EMC-BAC-2; first compound 0.4 µM) of 0.449 and a relative viability (EMC-BAC-2; first compound 1.265 µM) of 0.391. The relative viability (NCI-H23; first compound 0.04 µM) was 0.791, the relative viability (NCI-H23; first compound 0.1265 µM) was 0.844 and the relative viability (NCI-H23; first compound 0.4 µM) was 0.588. It also gave a relative viability (NCI-H23; first compound 1.265 µM) of 0.575, a relative viability (SK-LU-1; first compound 0.04 µM) of 0.793 and a relative viability (SK-LU-1; first compound 0.1265 µM) of 0.717. It also gave a relative viability (SK-LU-1; first compound 0.4 µM) of 0.684, a relative viability (SK-LU-1; first compound 1.265 µM) of 0.364 and a relative viability (HARA; first compound 0.04 µM) of 0.558. It also gave a relative viability (HARA; first compound 0.1265 µM) of 0.49, a relative viability (HARA; first compound 0.4 µM) of 0.568 and a relative viability (HARA; first compound 1.265 µM) of 0.405. It also gave a relative viability (COR-L23; first compound 0.04 µM) of 0.468, a relative viability (COR-L23; first compound 0.1265 µM) of 0.403 and a relative viability (COR-L23; first compound 0.4 µM) of 0.467. For the same molecule, the relative viability (COR-L23; first compound 1.265 µM) was 0.233, the relative viability (HCC-15; first compound 0.04 µM) was 0.848 and the relative viability (HCC-15; first compound 0.1265 µM) was 0.872. It also gave a relative viability (HCC-15; first compound 0.4 µM) of 0.834, a relative viability (HCC-15; first compound 1.265 µM) of 0.59 and a relative viability (NCI-H1793; first compound 0.04 µM) of 0.835. It also gave a relative viability (NCI-H1793; first compound 0.1265 µM) of 1.16, a relative viability (NCI-H1793; first compound 0.4 µM) of 0.84 and a relative viability (NCI-H1793; first compound 1.265 µM) of 0.744. The relative viability (LC-2-ad; first compound 0.04 µM) was 0.692, the relative viability (LC-2-ad; first compound 0.1265 µM) was 0.696 and the relative viability (LC-2-ad; first compound 0.4 µM) was 0.668. For the same molecule, the relative viability (LC-2-ad; first compound 1.265 µM) was 0.454.
